The text below walks through data of patent US12209085B2, “RET inhibitors, pharmaceutical compositions and uses thereof” (SUNSHINE LAKE PHARMA CO., LTD., priority 2018, dated 2025).

Experiment [1] addresses Ret wt (Homo sapiens (Human), UniProt P07949). Description: HTRF kinase inhibition assay, Ret wt. It is filed as biochemical. As to conditions: HTRF method. The text has this: (§1) • 1. […] 1) • 18) Echo (Labcyte, 550) • 3.
(§2) [formula] • Ratiopositive control: average of CEP-32496 readings in all positive control wells • Rationegative control: average of DMSO readings in all negative control wells • Wherein, the chemical name of CEP-32496 is: N-[3-[(6,7-dimethoxy-4-quinazolinyl)oxy]phenyl]-N′-[5-(2,2,2-trifluoro-1,1-dimethylethyl)-3-isoxazolyl]urea. • 4.3 Calculation of the IC50 and Drawing of the inhibition curve of the compound: • The IC50 (half inhibitory concentration) of the compound was obtained using the following non-linear fitting formula: Data analysis was performed using Graphpad 6.0 software. Y=Bottom+(Top−Bottom)/(1+10^((Log IC50−X)*Hill Slope)) • X: compound concentration log value Y: inhibition, % • 5.
In general terms: TR-FRET usually uses a lanthanide donor and a delayed reading to cut background.

The target in experiment [2] is Ret V804M (Homo sapiens (Human), UniProt P07949, V804M). The experiment in a line: HTRF kinase inhibition assay, Ret V804M. As to conditions: HTRF method. It is filed as biochemical.
Source text: as §1, §2

By IC50 is commonly meant the point on the concentration scale where inhibition reaches its midpoint. Low readings indicate inhibition by little substance, high ones a need for much substance.

Ret V804M, sequence (P07949 29-1114 V804M): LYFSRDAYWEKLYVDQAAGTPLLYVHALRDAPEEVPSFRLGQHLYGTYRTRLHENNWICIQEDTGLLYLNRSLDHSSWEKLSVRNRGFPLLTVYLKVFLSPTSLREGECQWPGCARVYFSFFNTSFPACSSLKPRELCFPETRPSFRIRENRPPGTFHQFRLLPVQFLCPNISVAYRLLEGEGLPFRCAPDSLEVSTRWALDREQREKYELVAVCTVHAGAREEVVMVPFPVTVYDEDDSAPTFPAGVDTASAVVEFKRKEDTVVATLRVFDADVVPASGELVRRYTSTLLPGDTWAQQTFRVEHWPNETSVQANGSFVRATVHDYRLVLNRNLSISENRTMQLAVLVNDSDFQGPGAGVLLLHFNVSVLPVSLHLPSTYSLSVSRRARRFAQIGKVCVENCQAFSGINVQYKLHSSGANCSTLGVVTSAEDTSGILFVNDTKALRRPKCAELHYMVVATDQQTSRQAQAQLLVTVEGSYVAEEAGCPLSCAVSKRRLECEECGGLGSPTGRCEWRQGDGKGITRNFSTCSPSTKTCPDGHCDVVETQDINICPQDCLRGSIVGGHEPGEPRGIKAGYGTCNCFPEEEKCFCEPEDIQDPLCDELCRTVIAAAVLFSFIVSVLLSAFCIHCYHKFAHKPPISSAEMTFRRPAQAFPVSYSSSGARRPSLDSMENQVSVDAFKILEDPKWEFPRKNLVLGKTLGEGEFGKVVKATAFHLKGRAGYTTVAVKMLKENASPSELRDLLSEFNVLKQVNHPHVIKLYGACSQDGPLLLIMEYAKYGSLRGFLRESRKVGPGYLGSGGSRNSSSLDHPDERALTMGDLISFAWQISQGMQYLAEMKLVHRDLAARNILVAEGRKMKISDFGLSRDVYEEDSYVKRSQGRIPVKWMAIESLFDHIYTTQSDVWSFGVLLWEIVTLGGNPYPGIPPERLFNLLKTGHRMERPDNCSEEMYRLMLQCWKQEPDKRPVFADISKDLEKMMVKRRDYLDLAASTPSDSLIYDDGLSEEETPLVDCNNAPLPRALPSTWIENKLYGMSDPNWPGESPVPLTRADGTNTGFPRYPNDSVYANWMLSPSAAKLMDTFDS
Ret wt, sequence (P07949 29-1114): as the sequence (P07949 29-1114 V804M) above, with M776V counted along it

Consider `Cn1cc(-c2cc(-c3ccc(N4CC5CC(C4)N5C(=O)C#Cc4cccnc4)nc3)c3c(C#N)cnn3c2)cn1` [Example 273, 6-(1-methyl-1H-pyrazol-4-yl)-4-(6-(6-(3-(pyridin-3-yl)propioloyl]-3,6-diazabicyclo[3.1.1]heptan-3-yl]-3-pyridin]pyrazolo[1,5-a]pyridine-3-carbonitrile], for which the IC50 in experiment [1] worked out at 4.28 nM; in experiment [2], 82.6 nM.

Consider `Cn1cc(-c2cc(-c3ccc(N4CCN(CC#Cc5ccccn5)CC4)nc3)c3c(C#N)cnn3c2)cn1` [Example 247, 6-(1-methylpyrazol-4-yl)-4-[6-[4-[3-(2-pyridyl)prop-2-ynyl]piperazin-1-yl]-3-pyridyl]pyrazolo[1,5-a]pyridine-3-carbonitrile], for which the IC50 in experiment [1] was 0.15 nM; in experiment [2], 1.94 nM.

As to `C#Cc1ccc(O[C@H]2CCN(c3ccc(-c4cc(-c5cnn(C(F)F)c5)cn5ncc(C#N)c45)cn3)C2)cn1` [Example 284, (S)-6-(1-(difluoromethyl)-1H-pyrazol-4-yl)-4-(6-(3-((6-ethynylpyridin-3-yl)oxy)pyrrolidin-1-yl)pyridin-3-yl) pyrazolo[1,5-a]pyridine-3-carbonitrile], the IC50 came out at 1.63 nM in experiment [1] and 23 nM in experiment [2].

Consider `C#Cc1ccc(OC2CN(c3ccc(-c4cc(-c5c(C)noc5C)cn5ncc(C#N)c45)cn3)C2)cn1` [Example 282, 6-(3,5-dimethylisoxazol-4-yl)-4-(6-(3-((6-ethynylpyridin-3-yl)oxy)azetidin-1-yl)pyridin-3-yl)pyrazolo[1,5-a]pyridine-3-carbonitrile], for which the values for the IC50 in experiment [1] and in experiment [2] were 2.9 nM and 60.8 nM, respectively.

On to `COc1ccc(C#CCN2CCN(c3ccc(-c4cc(-c5cnn(C)c5)cn5ncc(C#N)c45)cn3)CC2)cc1` [Example 251, 4-(6-(4-(3-(4-methoxyphenyl)prop-2-yn-1-yl)piperazin-1-yl)pyridin-3-yl)-6-(1-methyl-1H-pyrazolpyridin-4-yl)pyrazolo[1,5-a]pyridine-3-carbonitrile], for which the results for the IC50 in experiment [1] and in experiment [2] were 2.41 nM and 27.9 nM, respectively.

With `C#Cc1ccc(C(=O)N2CCN(c3ccc(-c4cc(-c5cnn(C)c5)cn5ncc(C#N)c45)cn3)CC2)cc1F` [Example 236, 4-(6-(4-(4-ethynyl-3-fluorobenzoyl)piperazin-1-yl)pyridin-3-yl)-6-(1-methyl-1H-pyrazol-4-yl)pyrazolo[1,5-a]pyridine-3-carbonitrile], the IC50 was 1.57 nM in experiment [1] and 19.7 nM in experiment [2].

As for `C#Cc1cc(F)c(C(=O)N2C3CC2CN(c2ccc(-c4cc(-c5cnn(C)c5)cn5ncc(C#N)c45)cn2)C3)c(F)c1` [Example 235], the IC50 worked out at 0.4 nM in experiment [1] and 10 nM in experiment [2].

Take `C#Cc1ccc(O[C@@H]2CCN(c3ccc(-c4cc(-c5cnn(C(F)F)c5)cn5ncc(C#N)c45)cn3)C2)cc1` [Example 286, (R)-6-(1-(difluoromethyl)-1H-pyrazol-4-yl)-4-(6-(3-(4-ethynylphenoxy)pyrrolidin-1-yl)pyridin-3-yl)pyrazolo[1,5-a]pyridine-3-carbonitrile]: the IC50 in experiment [1] and in experiment [2] was 0.85 nM in each case.

Consider `Cn1cc(-c2cc(-c3ccc(N4CC5CC(C4)N5CC#Cc4ccc(F)nc4)nc3)c3c(C#N)cnn3c2)cn1` [Example 262, 4-[6-[6-[3-(6-fluoro-3-pyridyl)prop-2-ynyl]-3,6-diazabicyclo[3.1.1]heptan-3-yl]3-pyridyl]-6-(1-methylpyrazol-4-yl)pyrazolo[1,5-a]pyridine-3-carbonitrile], for which the IC50 was determined as 0.2 nM in experiment [1] and 1.92 nM in experiment [2].

For the compound `C#Cc1cc(F)c(CN2C3CC2CN(c2ccc(-c4cc(-c5cnn(C)c5)cn5ncc(C#N)c45)cn2)C3)c(F)c1` [Example 222, 4-(6-(6-(4-ethynyl-2,6-difluorobenzyl)-3,6-diazabicyclo[3.1.1]heptan-3-yl)pyridin-3-yl)-6-(1-methyl-1H-pyrazol-4-yl)pyrazolo[1,5-a]pyridine-3-carbonitrile], the results for the half-inhibitory concentration (IC50) in experiment [1] and in experiment [2] were 0.43 nM and 4.35 nM, respectively.

As for `C#Cc1ccc(C(=O)N2C3CC2CN(c2ccc(-c4cc(-c5cnn(C)c5)cn5ncc(C#N)c45)cn2)C3)nc1` [Example 238, 4-(6-(6-(5-ethynylpicolinoyl)-3,6-diazabicyclo[3.1.1]heptan-3-yl)pyridin-3-yl)-6-(1-methyl-1H-pyrazol-4-yl)pyrazolo[1,5-a]pyridine-3-carbonitrile], the IC50 is 0.3 nM in experiment [1] and 2.75 nM in experiment [2].

As to `C#Cc1cc(F)c(C(=O)N2CCN(c3ccc(-c4cc(-c5cnn(C)c5)cn5ncc(C#N)c45)cn3)CC2)c(F)c1` [Example 234, 4-(6-(4-(4-ethynyl-2,6-difluorobenzoyl)piperazin-1-yl)pyridin-3-yl)-6-(1-methyl-1H-pyrazol-4-yl)pyrazolo[1,5-a]pyridine-3-carbonitrile], the IC50 was determined as 4 nM in experiment [1] and 62.3 nM in experiment [2].

In the case of `C#CCNC1(C)CCN(c2ccc(-c3cc(-c4cnn(C)c4)cn4ncc(C#N)c34)cn2)CC1` [Example 277, 6-(1-methyl-1H-pyrazol-4-yl)-4-(6-(4-methyl-4-(prop-2-yn-1-ylamino)piperidin-1-yl)pyridin-3-yl)pyrazolo[1,5-a]pyridine-3-carbonitrile], the values for the IC50 in experiment [1] and in experiment [2] were 1.38 nM and 10.3 nM, respectively.

In the case of `Cn1cc(-c2cc(-c3ccc(N4CC5CC(C4)N5C(=O)C#Cc4ccccc4)nc3)c3c(C#N)cnn3c2)cn1` [Example 271, 6-(1-methyl-1H-pyrazol-4-yl)-4-(6-(6-(3-phenylpropioloyl)-3,6-diazabicyclo[3.1.1]heptane-3-yl)pyridin-3-yl)pyrazolo[1,5-a]pyridine-3-carbonitrile], the IC50 in experiment [1] turned out to be 5.82 nM; in experiment [2], 74.1 nM.

Regarding `C#CC(=O)N1C2CC1CN(c1ccc(-c3cc(-c4cnn(C)c4)cn4ncc(C#N)c34)cn1)C2` [Example 31, 6-(1-methyl-1H-pyrazol-4-yl)-4-(6-(6-propioloyl-3,6-diazabicyclo[3.1.1]heptan-3-yl)pyridin-3-yl)pyrazolo[1,5-a]pyridine-3-carbonitrile], the IC50 was 1.95 nM in experiment [1] and 44.3 nM in experiment [2].

Regarding `COc1ccnc(C#CCN2CCN(c3ccc(-c4cc(-c5cnn(C)c5)cn5ncc(C#N)c45)cn3)CC2)c1` [Example 252, 4-(6-(4-(3-(4-methoxypyridin-2-yl)propan-2-ynyl-1-yl)piperazin-1-yl)pyridin-3-yl)-6-(1-methyl-1H-pyrazolin-4-yl)pyrazole[1,5-a]pyridine-3-carbonitrile], the values for the half-inhibitory concentration (IC50) in experiment [1] and in experiment [2] were 0.25 nM and 3.21 nM, respectively.

Take `C#Cc1ccc(OC2CN(c3ccc(-c4cc(-c5cnn(C(F)F)c5)cn5ncc(C#N)c45)cn3)C2)cc1` [Example 285, 6-(1-(difluoromethyl)-1H-pyrazol-4-yl)-4-(6-(3-(4-ethynylphenoxy)azetidin-1-yl)pyridin-3-yl)pyrazolo[1,5-a]pyridine-3-carbonitrile]: the IC50 in experiment [1] was found to be 0.56 nM; in experiment [2], 0.71 nM.

On to `Cn1cc(-c2cc(-c3ccc(N4CCN(CC#Cc5cncc(C(F)(F)F)c5)CC4)nc3)c3c(C#N)cnn3c2)cn1` [Example 265], for which the 50% inhibitory concentration (IC50) stood at 3.65 nM in experiment [1] and 69.6 nM in experiment [2].

For `C#Cc1cccc(CN2C3CC2CN(c2ccc(-c4cc(-c5cnn(C)c5)cn5ncc(C#N)c45)cn2)C3)n1` [Example 221, 4-(6-(6-((6-ethynylpyridin-2-yl)methyl)-3,6-diazabicyclo[3.1.1]hept-3-yl)pyridin-3-yl)-6-(1-methyl-1H-pyrazol-4-yl)pyrazolo[1,5-a]pyridine-3-carbonitrile], the figures for the half-maximal inhibitory concentration (IC50) in experiment [1] and in experiment [2] were 0.55 nM and 12.4 nM, respectively.

With `Cn1cc(-c2cc(-c3ccc(N4CCN(CC#Cc5ncccc5F)CC4)nc3)c3c(C#N)cnn3c2)cn1` [Example 257, 4-(6-(6-(3-(3-fluoropyridin-2-yl)prop-2-yn-1-yl)piperazin-3-yl)pyridin-3-yl)-6-(1-methyl-1H-pyrazol-4-yl)pyrazoline[1,5-a]pyridine-3-carbonitrile], the results for the IC50 in experiment [1] and in experiment [2] were 0.17 nM and 0.74 nM, respectively.

In the case of `C#Cc1cc(C(=O)N2CCN(c3ccc(-c4cc(-c5cnn(C)c5)cn5ncc(C#N)c45)cn3)CC2)ccc1F` [Example 239, 4-(6-(4-(3-ethynyl-4-fluorobenzoyl)piperazin-1-yl)pyridin-3-yl)-6-(1-methyl-1H-pyrazol-4-yl)pyrazolo[1,5-a]pyridine-3-carbonitrile], the results for the IC50 in experiment [1] and in experiment [2] were 0.62 nM and 12.3 nM, respectively.

On to `COc1cncc(C#CC(=O)N2C3CC2CN(c2ccc(-c4cc(-c5cnn(C)c5)cn5ncc(C#N)c45)cn2)C3)c1` [Example 270, 4-(6-(6-(3-(5-methoxypyridin-3-yl)propioloyl)-3,6-diazabicyclo[3.1.1]heptan-3-yl)pyridin-3-yl)-6-(1-methyl-1H-pyrazol-4-yl)pyrazolo[1,5-a]pyridine-3-carbonitrile], for which the half-inhibitory concentration (IC50) worked out at 1.1 nM in experiment [1] and 4.9 nM in experiment [2].

As for `Cn1cc(-c2cc(-c3ccc(N4CC5CC(C4)N5CC#Cc4cncc(F)c4)nc3)c3c(C#N)cnn3c2)cn1` [Example 259, 4-(6-(6-(3-(5-fluoropyridin-3-yl)prop-2-yn-1-yl)-3,6-diazabicyclo[3.1.1]heptane-3-yl)pyridin-3-yl)-6-(1-methyl-1H-pyrazol-4-yl)pyrazolo[1,5-a]pyridin-3-carbonitrile], the concentration for half-maximal inhibition (IC50) in experiment [1] is 0.16 nM; in experiment [2], 0.91 nM.

With `C#Cc1ccc(OC2CN(c3ccc(-c4cc(-c5cnn(C(F)F)c5)cn5ncc(C#N)c45)cn3)C2)cn1` [Example 283, 6-(1-(difluoromethyl)-1H-pyrazol-4-yl)-4-(6-(3-((6-ethynylpyridin-3-yl)oxy)azetidin-1-yl)pyridin-3-yl)pyrazolo[1,5-a]pyridine-3-carbonitrile], the IC50 in experiment [1] was 0.39 nM; in experiment [2] it was 2.29 nM.
